Results reported in PubChem BioAssay AID248 (DTP/NCI, 2004).
Several values for one entry are separate records, joined by “and”; a condition that tells them apart may be missing. Equal entries are not always repeated. Toxic doses and inconclusive results are not listed. Rule as the data show it: active = T/C of 150% or more; inactive = T/C below 125%.

Tested on: L1210 leukemia ip in BDF1 mice, survival T/C
Experiment: NCI In Vivo Anticancer Drug Screen. Data for tumor model L1210 Leukemia (intraperitoneal) in B6D2F1 (BDF1) mice
Conditions: endpoint: mean survival time, higher = longer survival
How it was run: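 Transplantable tumor model; survival measured in treated vs vehicle control mice. Value = treated/control.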

[1] = dose: 100.0 mg/kg/injection, schedule: Q01DX001 (ip), vehicle: saline
[2] = dose: 200.0 mg/kg/injection, schedule: Q01DX001 (ip), vehicle: saline
[3] = dose: 400.0 mg/kg/injection, schedule: Q01DX001 (ip), vehicle: saline
[4] = dose: 100.0 mg/kg/injection, schedule: Q04DX002 (ip), vehicle: saline with Tween-80
[5] = dose: 50.0 mg/kg/injection, schedule: Q04DX002 (ip), vehicle: Klucel (hydroxypropylcellulose) (HPC)
[6] = dose: 100.0 mg/kg/injection, schedule: Q04DX002 (ip), vehicle: Klucel (hydroxypropylcellulose) (HPC)
[7] = dose: 200.0 mg/kg/injection, schedule: Q04DX002 (ip), vehicle: Klucel (hydroxypropylcellulose) (HPC)
[8] = dose: 200.0 mg/kg/injection, schedule: Q01DX009 (ip), vehicle: saline with Tween-80
[9] = dose: 400.0 mg/kg/injection, schedule: Q01DX009 (ip), vehicle: saline with Tween-80
[10] = dose: 50.0 mg/kg/injection, schedule: Q01DX009 (ip), vehicle: Klucel (hydroxypropylcellulose) (HPC)
[11] = dose: 100.0 mg/kg/injection, schedule: Q01DX009 (ip), vehicle: Klucel (hydroxypropylcellulose) (HPC)
[12] = dose: 200.0 mg/kg/injection, schedule: Q01DX009 (ip), vehicle: Klucel (hydroxypropylcellulose) (HPC)
[13] = dose: 100.0 mg/kg/injection, schedule: Q01DX009 (ip), vehicle: other
[14] = dose: 200.0 mg/kg/injection, schedule: Q01DX009 (ip), vehicle: other
[15] = dose: 50.0 mg/kg/injection, schedule: Q01DX001 (ip), vehicle: Klucel (hydroxypropylcellulose) (HPC)
[16] = dose: 100.0 mg/kg/injection, schedule: Q01DX001 (ip), vehicle: Klucel (hydroxypropylcellulose) (HPC)
[17] = dose: 200.0 mg/kg/injection, schedule: Q01DX001 (ip), vehicle: Klucel (hydroxypropylcellulose) (HPC)
[18] = dose: 100.0 mg/kg/injection, schedule: Q01DX009 (ip), vehicle: saline with Tween-80
[19] = dose: 100.0 mg/kg/injection, schedule: Q04DX003 (ip), vehicle: saline with Tween-80
[20] = dose: 200.0 mg/kg/injection, schedule: Q04DX003 (ip), vehicle: saline with Tween-80
[21] = dose: 400.0 mg/kg/injection, schedule: Q04DX002 (ip), vehicle: Klucel (hydroxypropylcellulose) (HPC)
[22] = dose: 400.0 mg/kg/injection, schedule: Q04DX003 (ip), vehicle: saline with Tween-80
[23] = dose: 25.0 mg/kg/injection, schedule: Q01DX009 (ip), vehicle: Klucel (hydroxypropylcellulose) (HPC)
[24] = dose: 100.0 mg/kg/injection, schedule: Q04DX003 (ip), vehicle: Klucel (hydroxypropylcellulose) (HPC)
[25] = dose: 200.0 mg/kg/injection, schedule: Q04DX003 (ip), vehicle: Klucel (hydroxypropylcellulose) (HPC)
[26] = dose: 400.0 mg/kg/injection, schedule: Q04DX003 (ip), vehicle: Klucel (hydroxypropylcellulose) (HPC)

Measured: T/C

CCOC(=O)/C(C#N)=C\c1ccc(OCC)c(OCC)c1
inactive: dose: 100.0 mg/kg/injection, schedule: Q01DX Z (ip), vehicle: methylcellulose (MC) 101 % of control | dose: 200.0 mg/kg/injection, schedule: Q01DX Z (ip), vehicle: methylcellulose (MC) 100 % of control

O=C(NCCSSCCNC(=O)c1ccccc1)c1ccccc1
inactive: [1] 92 % of control | [2] 96 % of control | [3] 100 % of control

CCN=C(CCl)NS(=O)(=O)c1ccc(C)cc1
inactive: dose: 25.0 mg/kg/injection, schedule: Q04DX002 (ip), vehicle: saline with Tween-80 113 % of control | dose: 50.0 mg/kg/injection, schedule: Q04DX002 (ip), vehicle: saline with Tween-80 109 % of control | [4] 109 % of control

FC(F)C(F)(F)C(F)(F)C(F)(F)C(F)(F)C(F)(F)C(F)(F)F
inactive: [1] 97 % of control | [2] 100 % of control | [3] 95 % of control

Oc1ccc(Br)c2cccnc12
inactive: dose: 50.0 mg/kg/injection, schedule: Q01DX001 (ip), vehicle: saline 100 % of control | [1] 103 % of control | [2] 103 % of control | [3] 100 % of control

NC(=S)N/N=C\c1c(Cl)[nH]c2ccc(/C=N/NC(N)=S)cc12
inactive: [5] 97 % of control | [6] 90 % of control | [7] 94 % of control

CCOC(=O)c1ccc(NC(=S)NC(=O)c2ccc(Cl)cc2Cl)cc1
inactive: [8] 88 % of control | [9] 88 % of control

Cc1nc2ccccc2c2ccccc12
inactive: [10] 111 % of control | [11] 105 % of control | [12] 111 % of control

O=C(NO)c1cc(Cl)c(C(=O)NO)cc1Cl
inactive: [13] 93 % of control | dose: 100.0 mg/kg/injection, schedule: Q04DX003 (ip), vehicle: saline 102 % of control | [14] 95 % of control | dose: 200.0 mg/kg/injection, schedule: Q04DX003 (ip), vehicle: saline 102 % of control | dose: 400.0 mg/kg/injection, schedule: Q04DX003 (ip), vehicle: saline 97 % of control

c1ccc(C2=C(c3ccccc3)CC2)cc1
inactive: [15] 104 % of control | [16] 98 % of control | [17] 108 % of control

NC(Cc1ccc(O)cc1)C(=O)OCc1ccccc1 (stereo not given)
inactive: [18] 88 % of control | [6] 104 % of control | [19] 97 % of control | [8] 94 % of control | [7] 96 % of control | [20] 94 % of control | [9] 91 % of control | [21] 96 % of control | [22] 103 % of control

O=C1C=C(C(Cl)(Cl)Cl)OC(=O)C1
inactive: [19] 98 % of control | [20] 98 % of control | [22] 93 % of control

NS(=O)(=O)c1ccc(N=Cc2ccccc2)cc1
inactive: [18] 89 % of control | [8] 92 % of control | [9] 94 % of control

COC1CC(N=[N+]=[N-])C(O)C(C)O1 (stereo not given)
inactive: [18] 109 % of control and 105 % of control | [19] 97 % of control and 96 % of control | [8] 107 % of control and 89 % of control | [20] 103 % of control and 97 % of control | [9] 104 % of control and 100 % of control | [22] 108 % of control and 103 % of control

COC(=O)c1ncccc1C(=O)O
inactive: dose: 50.0 mg/kg/injection, schedule: Q01DX009 (ip), vehicle: saline with Tween-80 96 % of control | [18] 93 % of control

CCCCCCSc1nccnc1C
inactive: [23] 100 % of control | [15] 92 % of control | [10] 92 % of control and 96 % of control | [5] 92 % of control | dose: 50.0 mg/kg/injection, schedule: Q04DX003 (ip), vehicle: Klucel (hydroxypropylcellulose) (HPC) 93 % of control | [16] 95 % of control | [11] 123 % of control and 91 % of control | [6] 102 % of control | [24] 95 % of control | [17] 98 % of control | [12] 100 % of control | [7] 87 % of control | [25] 92 % of control | dose: 400.0 mg/kg/injection, schedule: Q01DX001 (ip), vehicle: Klucel (hydroxypropylcellulose) (HPC) 98 % of control | [21] 94 % of control | [26] 87 % of control

CC(=O)c1cnn(-c2ccccc2)c1C
inactive: [13] 96 % of control | dose: 100.0 mg/kg/injection, schedule: Q04DX003 (ip), vehicle: other 89 % of control | [14] 101 % of control | dose: 200.0 mg/kg/injection, schedule: Q04DX003 (ip), vehicle: other 100 % of control | dose: 400.0 mg/kg/injection, schedule: Q01DX009 (ip), vehicle: other 102 % of control | dose: 400.0 mg/kg/injection, schedule: Q04DX003 (ip), vehicle: other 92 % of control

CCN(CC)CCCC(C)Nc1cc(N)nc2nc(-c3ccc(Cl)cc3)cnc12 (stereo not given)
inactive: dose: 75.0 mg/kg/injection, schedule: Q01DX001 (ip), vehicle: saline 94 % of control | dose: 150.0 mg/kg/injection, schedule: Q01DX001 (ip), vehicle: saline 101 % of control

NC(C(=O)O)c1ccccc1C(=O)O (stereo not given)
inactive: [19] 96 % of control | [20] 103 % of control | [22] 103 % of control

O=C(CC(O)(C(F)(F)F)C(F)(F)F)c1cc(Cl)ccc1Cl
inactive: [19] 112 % of control | [20] 105 % of control | [22] 103 % of control

CCOC(=O)Nc1nc(Cl)c(Cl)nc1Cl
inactive: dose: 25.0 mg/kg/injection, schedule: Q01DX009 (ip), vehicle: water 93 % of control | dose: 50.0 mg/kg/injection, schedule: Q01DX009 (ip), vehicle: water 102 % of control | dose: 100.0 mg/kg/injection, schedule: Q01DX009 (ip), vehicle: water 98 % of control | dose: 200.0 mg/kg/injection, schedule: Q01DX009 (ip), vehicle: water 91 % of control | dose: 400.0 mg/kg/injection, schedule: Q01DX009 (ip), vehicle: water 96 % of control

COC(=O)OCC1OC(OC(C)=O)C2OC(=O)OC12 (stereo not given)
inactive: [1] 97 % of control | [2] 97 % of control | [3] 97 % of control

CC(=O)N(C)c1ccc(NC(=O)Cc2ccccc2)cc1
inactive: [18] 96 % of control | [8] 102 % of control | [9] 95 % of control

CC(=O)OCCc1ccc(C)cc1
inactive: [4] 94 % of control | dose: 200.0 mg/kg/injection, schedule: Q04DX002 (ip), vehicle: saline with Tween-80 97 % of control | dose: 400.0 mg/kg/injection, schedule: Q04DX002 (ip), vehicle: saline with Tween-80 94 % of control

CC1(C(Cl)(Cl)Cl)C=CC(O)C=C1 (stereo not given)
inactive: [23] 90 % of control | dose: 25.0 mg/kg/injection, schedule: Q04DX002 (ip), vehicle: Klucel (hydroxypropylcellulose) (HPC) 87 % of control | [10] 93 % of control | [5] 93 % of control | [11] 97 % of control and 90 % of control | [6] 97 % of control and 89 % of control | dose: 150.0 mg/kg/injection, schedule: Q01DX009 (ip), vehicle: Klucel (hydroxypropylcellulose) (HPC) 93 % of control

Cc1ccc(Nc2cccc3c2C(=O)c2c(Nc4ccc(C)cc4C)cccc2C3=O)c(C)c1
inactive: dose: 100.0 mg/kg/injection, schedule: Q04DX002 (ip), vehicle: saline 97 % of control | dose: 200.0 mg/kg/injection, schedule: Q04DX002 (ip), vehicle: saline 117 % of control | dose: 400.0 mg/kg/injection, schedule: Q04DX002 (ip), vehicle: saline 100 % of control

Cc1cc(C(=O)CCl)c(CN2C(=O)c3ccccc3C2=O)c(=O)n1C
inactive: [18] 98 % of control | [19] 108 % of control | [8] 100 % of control | [20] 105 % of control | [9] 92 % of control | [22] 110 % of control

CCCNC(=O)Nc1ccc(C(=O)OCC(C)C)cc1
inactive: [18] 95 % of control | [8] 93 % of control

[CH3][Pb]([CH3])([CH3])[I]
inactive: [24] 103 % of control | [25] 98 % of control | [26] 94 % of control

Cn1c(=O)c2c(nc(C3CC=CCC3)n2C)n(C)c1=O (stereo not given)
inactive: dose: 50.0 mg/kg/injection, schedule: Q01DX001 (ip), vehicle: other 98 % of control
